Assay results taken from article PMC10822168, “Development of potent isoflavone-based formyl peptide receptor 1 (FPR1) antagonists and their effects in gastric cancer cell models” (European journal of medicinal chemistry, 2023).
Where two headings read alike, the source gives them in different places.

What was measured:
[1] = system: AGS cells; assay: MTT viability assay in AGS cells; type: cell-based; settings: Homo sapiens
From the text: (§1) We decided to study, for the first time, the effect of pharmacological blockade of FPR1 on cell proliferation, cell migration, and angiogenesis in GC by using our antagonists 24a and 25a. We first assessed the expression levels of FPR1 and FPR2 mRNA in four GC cell lines, i.e., HGC27, derived from human gastric carcinoma, KATOIII, AGS, and NCl–N87, derived from human gastric adenocarcinoma. […] We first assessed the effect of compounds 24a and 25a on cell viability in both cell lines at 24, 48, and 72 h using the MTT assay (Table 2).
(§2) AGS and NCl–N87 human gastric cancer cell lines were purchased and authenticated by American Type Culture Collection (Manassas, Virginia, USA). All cell culture components were purchased from Sigma-Aldrich (Milan, Italy) and Celbio s.r.l. (Milano, Italy).
(§3) AGS and NCl–N87 human gastric cancer cell lines were grown in RPMI high glucose supplemented with 10% fetal bovine serum, 2 mM glutamine, 100 U/mL penicillin, 100 μg/mL streptomycin, in a humidified incubator at 37 °C with a 5% CO2 atmosphere.
(§4) Determination of cell growth was performed using the MTT assay at 24h, 48 h, and 72 h. On day 1, 5000 cells/well were seeded into 96-well plates in a volume of 100 μL. On day 2, the test compound was added at different concentrations. In all the experiments, the solvent used to dissolve the drug (ethanol, DMSO) was added in each control to evaluate possible cytotoxicity. After the established incubation time with drugs, MTT (0.5 mg/mL) was added to each well. Following 3 h incubation at 37 °C, the supernatant was removed. The formazan crystals were solubilized using 100 μL of DMSO and the absorbance values at 570 and 630 nm were determined on a Victor 3 microplate reader (PerkinElmer).

[2] = system: NCl–N87 cells; assay: MTT viability assay in NCl–N87 cells; type: cell-based; settings: Homo sapiens
From the text: as §1, §2, §3, §4

[3] = system: NCl–N87 cells; assay: Muse Ki67 proliferation assay in NCl–N87 cells; type: cell-based, human; settings: NCl–N87, 5 μM, 24 h; control cells 81.3%
Procedure: Representative flow cytometry charts reporting percentage of Ki67 negative (blue) and positive (red) cells (panel A). Statistical charts reporting the results from three independent experiments and expressed as means ± SD (panel B). Statistical analysis was assessed by comparing the values obtained using single drug treatment to those of corresponding untreated cells and the combined treatments to those of the single treatments, *p < 0.05; **p < 0.001; ***p < 0.0001.
The Muse Ki67 Proliferation Assay was used with the Guava Muse Cell Analyzer according to manufacturer’s instructions (Luminex Corporation, Austin, USA). Briefly, the cells were stained after fixation and permeabilization procedures by using Hu Ki67 or Hu IgG1 control fluorochrome-conjugated antibodies to distinguish Ki67^+ or Ki67^− cells, respectively. The software provided the percentage of both Ki67(+) and Ki67(−) cells.

[4] = system: VEGFA mRNA; assay: Real-time PCR of VEGFA mRNA expression in NCl–N87 and AGS cells; type: cell-based, human; settings: 24 h, fMLF 10 nM, antagonists 1 or 2 μM, normalized to GAPDH, untreated = 1
From the text: (§5) It has been reported that FPR1 can exert a tumor suppressor function in human GC by inhibiting angiogenesis and that silencing of the receptor increases the constitutive proangiogenic potential of GC cells. Therefore, we assessed the effect of 24a and 25a on the mRNA expression level and secretion of the proangiogenic factors, the vascular growth factor A (VEGFA), and the angiopoietin 2. […] These effects were more pronounced in NCl–N87 cells and resulted more strongly for 25a than 24a. The values obtained after each treatment were normalized to the expression of GAPDH and compared to the reference value of the two genes in untreated cells, which were set equal to 1 (Fig. 9).
(§6) Fig. 9. Effect of 24a and 25a on mRNA expression of VGFA and ANGPT2 in NCl–N87 and AGS cell lines. Real-time PCR experiments in NCl–N87 and AGS cells with specific primers for VEGFA and ANGPT2 genes. The mRNA expression was normalized on the GAPDH housekeeping gene. Expression analysis was performed after treatment with fMLF (10 nM) and 24a or 25a (1, 2, 5 μM) administrated alone or combining the lowest dose of 24a or 25a with fMLF. All expression values were calculated against the value of untreated PTX-sensitive cells, set equal to 1. Statistical analysis was assessed by comparing the values obtained using single drug treatment to those of corresponding untreated cells and the combined treatments to those of single treatments. The values of untreated PTX-resistant cells were compared with those of untreated PTX-sensitive ones. Data were mean ± SD (n = 3). *p < 0.05, **p < 0.001, ***p < 0.0002, ****p < 0.0001.
(§7) Total RNA was extracted from FPR1 antagonist-treated NCl–N87 and AGS treated cells using the Qiagen RNeasy Mini Kit (Qiagen, Hilden, Germany) following the manufacturer’s instructions. Samples were retro-transcribed using the iScript Advanced cDNA Synthesis Kit (Bio-Rad Laboratories, California, USA). Real-Time-PCRs analyzed cDNA samples for the evaluation of VEGFA and ANGPT2 expression. […] Relative quantification was performed using the ddCT method.

[5] = system: ANGPT2 mRNA; assay: Real-time PCR of ANGPT2 mRNA expression in NCl–N87 and AGS cells; type: cell-based, human; settings: 24 h, fMLF 10 nM, antagonists 1 or 2 μM, normalized to GAPDH, untreated = 1
From the text: as §5, §6, §7

[6] = system: NCl–N87 cells; assay: Scratch migration assay in NCl–N87 cells; type: cell-based, human; settings: NCl–N87, fMLF 10 nM, 24 h incubation
From the text: The results are representative of three independent experiments.

[7] = system: AGS cells; assay: Scratch migration assay in AGS cells; type: cell-based, human; settings: fMLF 10 nM, 24 h incubation
Procedure: The effect of FPR1 blockade on cell migration was assessed using the scratch assay, an easy and well-developed method to measure cell migration in vitro. […] Conversely, 24a and 25a reduced the migration rate in a dose-dependent manner. The effect was more pronounced in NCl–N87 as compared to AGS cells. […] The effect was FPR1-mediated, as it was counterbalanced by co-administration of the agonist fMLF (10 nM).
Fig. 8. Effect of 24a and 25a on cell migration in NCl–N87 and AGS cell lines. Scratch assay assessed on cells treated with fMLF (10 nM) and 24a or 25a (1, 1.5, 2 μM) administrated alone or combining the lowest dose of 24a or 25a with fMLF. The cells were microscopically analyzed at the time of the scratch (T0) and after 24 h (T1). The relative migration rate was calculated by setting the percentage of migration of the control cells at time T1 equal to 1 and comparing the migration percentage of the cells after each drug treatment to this value. Representative original photographs (panel A) and quantitative analysis (panel B) of the cell-free scratch path ares. […] Statistical analysis was assessed by comparing the values obtained using a single drug treatment to those of corresponding untreated cells and the combined treatments to those of the single treatments, *p < 0.05, **p < 0.001, ****p < 0.0001. […]

[8] = system: VEGFA; assay: ELISA of VEGFA secretion in culture medium of NCl–N87 cells; type: cell-based, human; settings: NCl–N87, fMLF 10 nM, 48 h
Procedure: (§8) Secretion of VEGFA and angiopoietin 2 (Ang2) in the culture medium of NCl–N87 and AGS cells was assessed after 48 h of drug treatment using ELISA methods (Fig. 10). […] Once again, the effects were more pronounced in NCl–N87 cells than in AGS, and the effect of 25a was more pronounced as compared to 24a. The co-administration of fMLF (10 nM) partially counteracted the effects.
(§9) Fig. 10. Effect of 24a and 25a on the secretion of VGFA (A) and Ang2 (B) in NCl–N87 and AGS cell lines. The ELISA assays were assessed on cells after 48 h of drug treatment with fMLF (10 nM) and 24a or 25a (1, 5 μM) administrated alone or combining the lowest dose of 24a or 25a with fMLF. The concentration of VEGFA (A) or Ang2 (B) was determined in the medium and normalized for the cell number. The values ± SD, obtained from three independent experiments expressed as pg/mL, were shown in the relative graphs. Statistical analysis was assessed by comparing the values obtained using a single drug treatment to those of corresponding untreated cells and the combined treatments to those of the single treatments. **p < 0.001; ***p < 0.0002; ****p < 0.0001. […]

[9] = system: angiopoietin 2 (Ang2); assay: ELISA of angiopoietin 2 secretion in culture medium of NCl–N87 cells; type: cell-based, human; settings: NCl–N87, fMLF 10 nM, 48 h
Procedure: as §8, §9

[10] = system: VEGFA; assay: ELISA of VEGFA secretion in culture medium of AGS cells; type: cell-based, human; settings: fMLF 10 nM, 48 h
Procedure: as §8, §9

[11] = system: angiopoietin 2 (Ang2); assay: ELISA of angiopoietin 2 secretion in culture medium of AGS cells; type: cell-based, human; settings: fMLF 10 nM, 48 h
Procedure: as §8, §9

[12] = 48 h, read-out: AGS EC50 (μM ± S.E.M.) 48 h
[13] = read-out: AGS EC50 (μM ± S.E.M.) 24 h, 24 h
[14] = read-out: AGS EC50 (μM ± S.E.M.) 72 h, 72 h
[15] = 48 h, read-out: NCl–N87 EC50 (μM ± S.E.M.) 48 h
[16] = read-out: NCl–N87 EC50 (μM ± S.E.M.) 24 h, 24 h
[17] = read-out: NCl–N87 EC50 (μM ± S.E.M.) 72 h, 72 h

`CCCCCCc1cc2c(=O)c(-c3ccccc3OC)c(C)oc2cc1OC(C)=O` [Compound 24a, 6-Hexyl-3-(2-methoxyphenyl)-2-methyl-4-oxo-4H-chromen-7-yl acetate] was tested, and the EC50 [1, 12] was 11 ± 1.91 µM, the EC50 [1, 13] was 24.7 ± 4 µM and the EC50 [1, 14] was 7.55 ± 1.75 µM. For the same compound, the EC50 [2, 15] was 8.65 ± 0.65 µM, the EC50 [2, 16] was 32.9 ± 2.95 µM and the EC50 [2, 17] was 11.5 ± 1.2 µM. The “percentage of Ki67(+) cells” value [3] was 73.1%, the “VEGFA mRNA expression” value [4] was “dose-dependent increase” and the “angiopoietin 2 (ANGPT2) mRNA expression” value [5] was “dose-dependent increase”.
Compound `CCCCCCc1cc2c(=O)c(-c3ccccc3OC)c(C(F)(F)F)oc2cc1OC(C)=O` [Compound 25a, 6-Hexyl-3-(2-methoxyphenyl)-4-oxo-2-(trifluoromethyl)-4H-chromen-7-yl acetate] has an EC50 [1, 12] of 8 ± 0.1 µM, an EC50 [1, 13] of 16.7 ± 0.7 µM and an EC50 [1, 14] of 5.45 ± 3.45 µM. It also gave an EC50 [2, 15] of 10.2 ± 1 µM, an EC50 [2, 16] of 13.3 ± 1.88 µM and an EC50 [2, 17] of 2.65 ± 0.5 µM. The “VEGFA mRNA expression” value [4] was “dose-dependent increase” and the “angiopoietin 2 (ANGPT2) mRNA expression” value [5] was “dose-dependent increase”.
With “N-formyl-methionyl-leucyl-phenylalanine [fMLF]” the “increase in cell mobility” value [6] was 41%, the “increase in cell mobility” value [7] was 32% and the “reduction in the secretion of VEGFA” value [8] was “approximately 40%”. For the same compound, the “reduction in the secretion of Ang2” value [9] was roughly 22%, the “reduction in the secretion of VEGFA” value [10] was roughly 35% and the “reduction in the secretion of Ang2” value [11] was roughly 23%. For the same compound, the “VEGFA mRNA expression” value [4] was “reduced expression” and the “angiopoietin 2 (ANGPT2) mRNA expression” value [5] was “reduced expression”.
